Where two headings read alike, the source gives them in different places.
Tests used:
Type in all cases: in vivo
[1] = system: ragweed (common ragweed, Ambrosia elatior); test: Test A postemergence; conditions: Ambrosia artemisiifolia, post-emergence, 240 h, read-out: Plant response rating, Ragweed; for pest or weed control at 125 g/ha: 125 g ai/ha, Postemergence, visual injury after approximately 10 d, 0 to 100 scale where 0 is no effect and 100 is complete control
How it was run: (§1)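 Preemergence soil spray on seeded pots or post-emergence spray on 1–2 leaf plants, in loam–sand blend. Greenhouse ~10 d. Visual rating 0–100 against untreated plants.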

[2] = system: giant foxtail (Setaria faberii); test: Test A postemergence; conditions: Setaria faberi, post-emergence, 240 h, read-out: Plant response rating, Foxtail, Giant; for pest or weed control at 125 g/ha: 125 g ai/ha, Postemergence, visual injury after approximately 10 d, 0 to 100 scale where 0 is no effect and 100 is complete control
How it was run: as §1

[3] = system: wheat (Triticum aestivum); test: Test A postemergence; conditions: Triticum aestivum, post-emergence, 240 h, read-out: Plant response rating, Wheat; for plant injury at 125 g/ha: 125 g ai/ha, Postemergence, visual injury after approximately 10 d, 0 to 100 scale where 0 is no effect and 100 is complete control
How it was run: as §1

[4] = system: ryegrass, Italian (Italian ryegrass, Lolium multiflorum); test: Test A postemergence; conditions: Lolium multiflorum, post-emergence, 240 h, read-out: Plant response rating, Ryegrass, Italian; for pest or weed control at 125 g/ha: 125 g ai/ha, Postemergence, visual injury after approximately 10 d, 0 to 100 scale where 0 is no effect and 100 is complete control
How it was run: as §1

[5] = system: ragweed (common ragweed, Ambrosia elatior); test: Test A preemergence; conditions: Ambrosia artemisiifolia, pre-emergence, 240 h; for pest or weed control at 125 g/ha: 125 g ai/ha, Preemergence, visual injury rating after approximately 10 d, read-out: Ragweed plant response rating (0 to 100 scale, 0 is no effect, 100 is complete control); for pest or weed control at 500 g/ha: 500 g ai/ha, preemergence, visual injury rating about 10 d after treatment, 0 to 100 scale (0 no effect, 100 complete control), read-out: Ragweed plant response rating
How it was run: as §1

[6] = system: giant foxtail (Setaria faberii); test: Test A preemergence; conditions: Setaria faberi, pre-emergence, 240 h; for pest or weed control at 125 g/ha: 125 g ai/ha, Preemergence, visual injury rating after approximately 10 d, read-out: Foxtail, Giant plant response rating (0 to 100 scale, 0 is no effect, 100 is complete control); for pest or weed control at 500 g/ha: 500 g ai/ha, preemergence, visual injury rating about 10 d after treatment, 0 to 100 scale (0 no effect, 100 complete control), read-out: Foxtail, Giant plant response rating
How it was run: as §1

[7] = system: barnyardgrass (Echinochloa crus-galli); test: Test A preemergence; conditions: Echinochloa crus-galli, pre-emergence, 240 h; for pest or weed control at 125 g/ha: 125 g ai/ha, Preemergence, visual injury rating after approximately 10 d, read-out: Barnyardgrass plant response rating (0 to 100 scale, 0 is no effect, 100 is complete control); for pest or weed control at 500 g/ha: 500 g ai/ha, preemergence, visual injury rating about 10 d after treatment, 0 to 100 scale (0 no effect, 100 complete control), read-out: Barnyardgrass plant response rating
How it was run: as §1

Kochia (Kochia scoparia) = test: Test A preemergence; conditions: Bassia scoparia, pre-emergence, 240 h; for pest or weed control at 125 g/ha: 125 g ai/ha, Preemergence, visual injury rating after approximately 10 d, read-out: Kochia plant response rating (0 to 100 scale, 0 is no effect, 100 is complete control); for pest or weed control at 500 g/ha: 500 g ai/ha, preemergence, visual injury rating about 10 d after treatment, 0 to 100 scale (0 no effect, 100 complete control), read-out: Kochia plant response rating
How it was run: as §1

[8] = system: ryegrass, Italian (Italian ryegrass, Lolium multiflorum); test: Test A preemergence; conditions: Lolium multiflorum, pre-emergence, 240 h; for pest or weed control at 125 g/ha: 125 g ai/ha, Preemergence, visual injury rating after approximately 10 d, read-out: Ryegrass, Italian plant response rating (0 to 100 scale, 0 is no effect, 100 is complete control); for pest or weed control at 500 g/ha: 500 g ai/ha, preemergence, visual injury rating about 10 d after treatment, 0 to 100 scale (0 no effect, 100 complete control), read-out: Ryegrass, Italian plant response rating
How it was run: as §1

[9] = system: pigweed (Amaranthus retroflexus); test: Test A preemergence; conditions: Amaranthus retroflexus, pre-emergence, 240 h; for pest or weed control at 125 g/ha: 125 g ai/ha, Preemergence, visual injury rating after approximately 10 d, read-out: Pigweed plant response rating (0 to 100 scale, 0 is no effect, 100 is complete control); for pest or weed control at 500 g/ha: 500 g ai/ha, preemergence, visual injury rating about 10 d after treatment, 0 to 100 scale (0 no effect, 100 complete control), read-out: Pigweed plant response rating
[10] = system: sedge, umbrella (small-flower umbrella sedge, Cyperus difformis); test: Test B flooded paddy test; conditions: Cyperus difformis, 250 g ai/ha, Flood; 0 to 100 scale where 0 is no effect and 100 is complete control; read-out: Sedge, Umbrella plant response rating
How it was run: (§2)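 Rating scale 0–100 (visual, vs untreated controls) after a 13–15 d greenhouse period; application to the flood layer, 3 cm above soil and maintained; plants at 2-leaf stage when treated.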

rice (Oryra sativa) = test: Test B flooded paddy test; conditions: Oryza sativa, Flood, 250 g ai/ha, read-out: Rice plant response rating
How it was run: as §2

[11] = system: barnyardgrass (Echinochloa crus-galli); test: Test B flooded paddy test; conditions: Echinochloa crus-galli, Flood, 250 g ai/ha, read-out: Barnyardgrass plant response rating
How it was run: as §2

[12] = system: ducksalad (Heteranthera limosa); test: Test B flooded paddy test; conditions: Heteranthera limosa, Flood, 250 g ai/ha, read-out: Ducksalad plant response rating
How it was run: as §2

[13] = scale of 0 to 100 where 0 is no effect and 100 is complete control
[14] = 0 to 100 scale where 0 is no effect and 100 is complete control
[15] = 500 g ai/ha, postemergence, visual injury, 0 to 100 scale (0 no effect, 100 complete control), approx. 10 d

SMILES | pest or weed control at 125 g/ha [1] | pest or weed control at 125 g/ha [2] | plant injury at 125 g/ha [3] | pest or weed control at 125 g/ha [4] | pest or weed control at 125 g/ha [5] | pest or weed control at 500 g/ha [5] | pest or weed control at 125 g/ha [6] | pest or weed control at 500 g/ha [6] | pest or weed control at 125 g/ha [7] | pest or weed control at 500 g/ha [7] | pest or weed control at 125 g/ha (Kochia (Kochia scoparia)) | pest or weed control at 500 g/ha (Kochia (Kochia scoparia)) | pest or weed control at 125 g/ha [8] | pest or weed control at 500 g/ha [8] | pest or weed control at 125 g/ha [9] | pest or weed control at 500 g/ha [9] | pest or weed control at 250 g/ha [10] | pest or weed control at 250 g/ha (rice (Oryra sativa); [13]) | pest or weed control at 250 g/ha [11, 13] | pest or weed control at 250 g/ha [12, 13] | other results
CN1C[C@H](c2cc(F)cc(F)c2)[C@@H](C(=O)Nc2cc(O)ccc2F)C1=O [Compound 992] | 0% | 0% | 0% | 0% | 0% | 0% | 0% | 0% | 0% | 0% | 0% | 0% | 0% | 0% | 0% | 0% | 0% | 0% | 0% | 0% | 
CN1C[C@H](c2cc(F)cc(C(F)(F)F)c2)[C@@H](C(=O)Nc2ccc(F)c(F)c2F)C1=O [Compound 993] | 0% | 90% | 50% | 50% | 0% | 60% | 90% | 90% | 90% | 90% | 0% | 50% | 80% | 90% | 40% | 80% | 60% | 40% | 70% | 85% | 
CN1CC[C@H](c2ccc(OC(F)(F)F)cc2)[C@@H](C(=O)Nc2ccccc2C(F)(F)F)C1=O [Compound 998] | 0% | 0% | 0% | 0% | 0% | 0% | 0% | 0% | 0% | 0% | 0% | 0% | 0% | 0% | 0% | 0% | 0% | 0% | 0% | 0% | 
CN1CC[C@H](c2ccc(OC(F)(F)F)cc2)[C@@H](C(=O)Nc2cccc(F)c2F)C1=O [Compound 999] | 0% | 40% | 0% | 0% | 0% | 30% | 90% | 90% | 70% | 90% | 0% | 20% | 0% | 50% | 0% | 50% | 0% |  |  |  | pest or weed control at 250 g/ha (rice (Oryra sativa); [14]): 0%; pest or weed control at 250 g/ha [11, 14]: 0%; pest or weed control at 250 g/ha [12, 14]: 85%
Cc1ccc([C@H]2CN(C)C(=O)[C@@H]2C(=O)Nc2cccc(F)c2F)cc1Cl [Compound 1013] | 0% | 80% | 40% | 0% | 0% | 0% | 90% | 90% | 90% | 90% | 50% | 70% | 30% | 70% | 30% | 40% | 100% |  |  |  | pest or weed control at 500 g/ha [1, 15]: 40%; pest or weed control at 500 g/ha [2, 15]: 90%; plant injury at 500 g/ha [3, 15]: 60%; pest or weed control at 500 g/ha [4, 15]: 60%; pest or weed control at 250 g/ha (rice (Oryra sativa); [14]): 70%; pest or weed control at 250 g/ha [11, 14]: 55%; pest or weed control at 250 g/ha [12, 14]: 100%

Source: patent US12077503B2, “Substituted cyclic amides and their use as herbicides” (FMC CORPORATION, priority 2015, dated 2024)
